Measurements taken from US4075332A (priority 1976, dated 1978).
Like-named read-outs stand apart in the source and are kept apart here.

Tests used:
Lepidoptera = assay: Activity against Lepidoptera / pest spectrum (in words); assay type: in vivo
Spider mites [1] = assay: Mite, Systemic; assay type: in vivo, two-spotted mite; conditions: Tetranychus urticae, read-out: Mortality Produced, % - Spider Mites Systemic
Method in brief: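 Compound was dissolved in acetone and dispersed in water with Triton X-100 as an emulsion. 20 ml was applied as a soil drench to bean plants infested with two-spotted mites.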

Bean aphids [2] = assay: Aphid, Systemic; assay type: in vivo, bean aphid; conditions: Aphis fabae, 48 h, read-out: Mortality Produced, % - Bean Aphids Systemic
Method in brief: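 Nasturtium plants infested with bean aphids received the compound as a soil drench, formulated as an acetone/water emulsion with Triton X-100. Aphid control was rated 2 days after treatment.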

Root-knot nematode = conditions: in vivo
Corn earworm = assay: Field control of corn earworm on corn (Example 28); assay type: in vivo
From the text: (§1) Corn plots were planted on March 22. Each treatment was made on a 50 ft. row flanked by guard rows. Treatments were replicated 4 times and the average rating is reported. Except for insecticide treatment, the plots were managed in accordance with recommended farming practice for the area.
Corn earworm applications were made during silking on May 29, June 1, 2, 3, 4, 5, 8, 9, 10, 11 and 12. Readings were made on June 15.

Fall armyworm = assay: Field control of fall armyworm on sweet corn (Example 28); assay type: in vivo
Procedure: as §1
Fall armyworm plots on sweet corn were treated on May 13, 20 and 27. Readings were made on May 29.

Cabbage looper [3] = assay: Field control of cabbage looper on cabbage (Example 28); assay type: in vivo; conditions: Table XVI; 1.5 lbs/acre; nil 5.9; higher ratings indicate more damage
From the text: (§2) King Cole cabbage and Vates Collards were transplanted on Feb. 1. Cabbage treatments were made on 50 ft. rows and replicated 4 times. Collard treatments were made on 25 ft. rows and replicated 4 times. Collard and cabbage rows were placed side-by-side and were flanked by guard rows. Except for insecticide treatment, the plots were managed in accordance with recommended farming practice for the area. Chemicals were applied on April 3, 10, 17, 24, May 1, 8, 15, 22 and 29, and readings were made on June 1.

Cabbage looper [4] = assay: Field control of cabbage looper on collards (Example 28); assay type: in vivo; conditions: Table XVI; 1.5 lbs/acre; nil 5.3; higher ratings indicate more damage
From the text: as §2

Southern army worm = conditions: in vivo
Mexican bean beetle [5] = conditions: in vivo
Spider mites [6] = conditions: in vivo, 48 h
House fly [7] = conditions: in vivo, 48 h
in vivo = conditions: rat, po
Mexican bean beetle [8] = assay: whole plant or invertebrate; conditions: Epilachna varivestis
Spider mites [9] = assay: whole plant or invertebrate; conditions: Tetranychus urticae; for mortality at 10 ppm: read-out: Spider Mites Mortality,%
Bean aphids [10] = assay: whole plant or invertebrate; conditions: Aphis fabae, 48 h
House fly [11] = assay: whole plant or invertebrate; conditions: Musca domestica, 48 h
Corn rootworm larvae [12] = assay: whole plant or invertebrate; conditions: soil, 120 h
[13] = tested on: powdery mildew fungus (Erysiphe Polygoni); assay: Bean Powdery Mildew eradicant test; assay type: in vivo; conditions: Table III; 200 ppm
[14] = tested on: bean rust fungus (Uromyces Phaseoli); assay: Bean Rust eradicant test; assay type: in vivo; conditions: Table III; 200 ppm
Procedure: In these tests, the experimental compounds were tested in aqueous emulsions, prepared in the same manner as was previously described above with respect to the insecticidal and miticidal tests.
Pinto bean plants with fully expanded primary leaves were inoculated with spores of the bean rust fungus (Uromyces Phaseoli) and incubated for 24 hours. The test were then carried out as described above for Bean Powdery Mildew.

[15] = tested on: bean rust fungus (Uromyces Phaseoli); assay: Bean Rust systemic eradicant test; assay type: in vivo; conditions: Table III; 200 ppm
Procedure: Pinto bean plants were inoculated 24 hours prior to use as above and the soil in the pot was then treated with 20 ml. of an emulsion of the test chemical. The rest of the test and the evaluation were then carried out an above for Bean Powdery Mildew.

Sclerotium = Sclerotium soil fungicide test; assay type: in vivo; conditions: Table III; 100 lb/acre
Procedure: Sterilized soil was inoculated with Solerotium and placed into a 4-ounce "Dixie cup", and drenched with 20 ml. of an emulsion of the test chemical. The cup was then incubated for 2 days at 70° F. Thereafter, the amount of mycelial growth on the soil surface was rated and the control by the chemical estimated accordingly.

Bean aphids [16] = conditions: bean aphid, in vivo, 48 h
Corn rootworm larvae [17] = conditions: in vivo, 120 h
warm blooded animals = assay: Toxicity towards warm blooded animals (in words); assay type: in vivo; conditions: summary statements
Procedure: Each compound tested was administered orally by stomach tube to five to eight groups of five male albino rate of the Sprague Dawley strain, weighing 220 to 300 grams at various dosage levels. Following incubation, the animals were closely observed for mortality and toxic effects at intervals for 14 days. Statistical analysis of the mortality data was carried out to determine the median lethal dosages (LD50) according to the method of W. R. Thompson as described in the Journal Bact. Rev. in Vol. 11, pages 115-145 in 1947, utilizng the tables of H. J. Horn published in the Journal Biometrics, Vol. 12, page 311 in 1956. The LD50 dosages are expressed in mg weights of test material per kg weight of rat used.

[18] = tested on: insects, mites and nematodes; assay: Overall pesticidal activity in the greenhouse and laboratory tests (in words); assay type: in vivo
Procedure: In Examples 14-29 which follow, the new dithiophosphate compositions of the present invention were tested in the greenhouse and in the laboratory to determine their biological activity. Structurally related, known compounds, usually leading cmmercial compounds, were also tested side-by-side to determine the relative pesticidal effectiveness of the new compounds.
In the insecticidal and miticidal tests, the experimental compounds were tested as aqueous emulsions. These emulsions were prepared by dissolving the compound in acetone and dispersing it in distilled water with Triton X-100, an alkylaryl polyether alcohol derived by the reaction of i-octylphenol with ethylene oxide, to give spray emulsions containing the desired concentrations of the compound. These emulsions were then used in standard laboratory tests described below.

[19] = read-out: Mexican Bean Beetles Mortality,%
[20] = read-out: Mortality Produced at 50 ppm, % - Mexican Bean Beetles
[21] = read-out: Mortality Produced, % - Mex.Bean Beetle
[22] = 48 h, read-out: Mortality Produced, % - Spider Mites Contact
[23] = read-out: Mortality Produced at 50 ppm, % - Spider Mites
[24] = read-out: Bean Aphids Mortality,%
[25] = read-out: Mortality Produced at 50 ppm, % - Bean Aphids
[26] = read-out: Mortality Produced, % -
[27] = read-out: Mortality Produced, % - Bean Aphids Contact
[28] = read-out: Mortality Produced at 50 ppm, % - Houseflies
[29] = read-out: Mortality Produced, % - House Flies
[30] = read-out: Corn Rootworm Mortality, % at 2.5 ppm
[31] = read-out: Corn Rootworm Mortality,%

Structure (SMILES): CCCSP(=O)(OCC)SCC(C)SC(C)=O (centres unmarked) [Example 13, O:ETHYL S-1-PROPYL S-2-ACETYLTHIOPROPYL DITHIOPHOSPHATE]
- pesticidal spectrum / activity against Lepidoptera (Lepidoptera): shows the broad pesticidal spectrum and the specific activity against Lepidoptera

Structure (SMILES): CCCSP(=O)(OCC)SCC(C)SC (centres unmarked) [Example 32, O-Ethyl S-1-Propyl S'-2-Methylthiopropyl dithiophosphate]
- mortality at 50 ppm (Spider mites [1]): 100%
- mortality at 250 ppm (Spider mites [1]): 100%
- mortality at 50 ppm (Bean aphids [2]): 0%
- mortality at 250 ppm (Bean aphids [2]): 100%
- Nematode Control,% (Root-knot nematode): 100%
- Nematodes Control % at 25 lb/acre (Root-knot nematode): 100%
- control of corn earworms (in words) (Corn earworm; 0.5 lbs per acre): excellent control
- Corn Earworm, % Clean Ears (Corn earworm; Table XVI, 0.5 lbs/acre, nil 36): 94%
- Fall Armyworm Injury Free Stalks of Sweet Corn, % (Fall armyworm; Table XVI, 0.75 lbs/acre, nil 67): 91%
- control of fall armyworm (in words) (Fall armyworm; sweet corn, 0.75 lbs. per acre): well controlled
- Cabbage Looper Harvest Rating - Cabbage (Cabbage looper [3]): 3.8
- Cabbage Looper Harvest Rating - Collards (Cabbage looper [4]): 2.0
- S.Armyworm Mortality,% (Southern army worm): 100%
- Mortality Produced at 50 ppm, % - Southern Army Worm (Southern army worm; southern armyworm): 100%
- Mortality Produced, % - S.Army Worm (Southern army worm; southern armyworm): 100%
- Mortality Produced, % - Mex.Bean Beetle (Mexican bean beetle [5]): 100%
- Mortality Produced, % - Spider Mites Contact (Spider mites [6]; two-spotted spider mite): 100%
- Mortality Produced, % - House Flies (House fly [7]): 100%
- LD50 at 336 h (in vivo): 109 mg/kg
- mortality at 50 ppm (Mexican bean beetle [8]; [19]): 100%
- mortality at 50 ppm (Mexican bean beetle [8]; [20]): 100%
- mortality at 50 ppm (Mexican bean beetle [8]; [21]): 100%
- mortality at 250 ppm (Mexican bean beetle [8]; [21]): 100%
- mortality at 50 ppm (Spider mites [9]; [22]): 100%
- mortality at 250 ppm (Spider mites [9]; [22]): 100%
- mortality at 50 ppm (Spider mites [9]; [23]): 100%
- mortality at 10 ppm (Spider mites [9]): 100%
- mortality at 50 ppm (Bean aphids [10]; [24]): 100%
- mortality at 50 ppm (Bean aphids [10]; [25]): 100%
- mortality at 50 ppm (Bean aphids [10]; [26]): 100%
- mortality at 250 ppm (Bean aphids [10]; [26]): 100%
- mortality at 50 ppm (Bean aphids [10]; [27]): 100%
- mortality at 250 ppm (Bean aphids [10]; [27]): 100%
- mortality at 50 ppm (House fly [11]; [28]): 100%
- mortality at 50 ppm (House fly [11]; [29]): 100%
- mortality at 250 ppm (House fly [11]; [29]): 100%
- mortality at 2.5 ppm (Corn rootworm larvae [12]; [30]): 100%
- mortality at 2.5 ppm (Corn rootworm larvae [12]; [31]): 100%

Structure (SMILES): CCCSP(=O)(OCC)SCC(C)SCC (centres unmarked) [Example 33, O-Ethyl S-1-Propyl S'-2-Ethylthiopropyl Dithiophosphate]
- Nematode Control,% (Root-knot nematode): 100%
- Pest Control, % - Nematode Control (25 lb/acre) (Root-knot nematode): 100%
- Control of Foliar Fungi, % - Bean Mildew Eradicant [13]: 70%
- Control of Foliar Fungi, % - Bean Rust Eradicant [14]: 80%
- Control of Foliar Fungi, % - Bean Rust Systemic Eradicant [15]: 90%
- Control of Sclerotium, % (Sclerotium): 60%
- S.Armyworm Mortality,% (Southern army worm): 100%
- Pest Control, % - Mex. Bean Beetle (Mexican bean beetle [5]): 100%
- Pest Control, % - Spider Mites Contact (Spider mites [6]; spider mite): 100%
- Pest Control, % - Bean Aphids Contact (Bean aphids [16]): 100%
- Pest Control, % - Corn Rootworm (0.25 ppm) (Corn rootworm larvae [17]): 100%
- LD50 at 336 h (in vivo): 214 mg/kg
- mortality at 50 ppm (Mexican bean beetle [8]; [19]): 70%
- mortality at 10 ppm (Spider mites [9]): 100%
- mortality at 50 ppm (Bean aphids [10]; [24]): 100%
- mortality at 2.5 ppm (Corn rootworm larvae [12]; [31]): 100%

Structure (SMILES): CCCSC(C)CSP(=O)(OCC)SCCC (centres unmarked) [Example 34, O-Ethyl S-1-Propyl S'-2-n-Propylthiopropyl Dithiophosphate]
- Nematode Control,% (Root-knot nematode): 100%
- toxicity (in words) (warm blooded animals): particularly low toxicity
- S.Armyworm Mortality,% (Southern army worm): 100%
- LD50 at 336 h (in vivo): 422 mg/kg
- mortality at 50 ppm (Mexican bean beetle [8]; [19]): 100%
- mortality at 10 ppm (Spider mites [9]): 100%
- mortality at 50 ppm (Bean aphids [10]; [24]): 100%
- mortality at 2.5 ppm (Corn rootworm larvae [12]; [31]): 100%

Structure (SMILES): CCCCCCSC(C)CSP(=O)(OCC)SCCC (centres unmarked) [Example 36, O-Ethyl S-1-Propyl S'-2-n-Hexylthiopropyl Dithiophosphate]
- Nematode Control,% (Root-knot nematode): 10%
- pesticidal activity (in words) ([18]; summary statements): decreased level of activity
- S.Armyworm Mortality,% (Southern army worm): 100%
- mortality at 50 ppm (Mexican bean beetle [8]; [19]): 100%
- mortality at 10 ppm (Spider mites [9]): 90%
- mortality at 50 ppm (Bean aphids [10]; [24]): 50%
- mortality at 2.5 ppm (Corn rootworm larvae [12]; [31]): 0%

Structure (SMILES): CCCSP(=O)(OCC)SCC(SC)C(C)(C)C (centres unmarked) [Example 39, O-Ethyl S-1-Propyl S'-2-Methylthio-3,3-Dimethylbutyl Dithiophosphate]
- insecticidal activity at 50 ppm (in words) ([18]; 50 ppm): very little insecticidal activity
- Mortality Produced at 50 ppm, % - Southern Army Worm (Southern army worm; southern armyworm): 0%
- mortality at 50 ppm (Mexican bean beetle [8]; [20]): 0%
- mortality at 50 ppm (Spider mites [9]; [23]): 100%
- mortality at 50 ppm (Bean aphids [10]; [25]): 30%
- mortality at 50 ppm (House fly [11]; [28]): 20%
- mortality at 2.5 ppm (Corn rootworm larvae [12]; [30]): 80%
